Experiments:
Assay in all cases: relative viability (nuclei count vs DMSO), 5 days (fraction); higher = more cells survive
[1] = compound: C[C@@H](N)c1ccc(C(=O)Nc2ccnc3[nH]ccc23)cc1 + O=C(c1cc(Cc2n[nH]c(=O)c3ccccc23)ccc1F)N1CCN(C(=O)C2CC2)CC1 [Olaparib] (partner 8 µM)
Method in brief: (§1)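 Lung cancer cell lines, seeded in 1536-well plates, were treated the following day by pin tool with a single drug or with five library-drug doses (not always all listed) in √10 steps on top of a fixed anchor-drug dose. Cells were fixed and nuclei stained in one step after 5 days, and nuclei were counted. Relative viability is the nuclei count for treated wells divided by that for vehicle wells, reported as medians of duplicate plates.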

[2] = compound: C[C@@H](N)c1ccc(C(=O)Nc2ccnc3[nH]ccc23)cc1 + N=C(N)NC(=N)NCCc1ccccc1 [Phenformin] (partner 250 µM)
Method in brief: as §1

[3] = compound: C[C@@H](N)c1ccc(C(=O)Nc2ccnc3[nH]ccc23)cc1 + Nc1nc2[nH]cc(CCc3ccc(C(=O)N[C@@H](CCC(=O)O)C(=O)O)cc3)c2c(=O)[nH]1 [Pemetrexed] (partner 0.2 µM)
Method in brief: as §1

[4] = compound: C1CNCCC1C2=CC(=NN2)C3=CC=NC=C3 + O=C(c1cc(Cc2n[nH]c(=O)c3ccccc23)ccc1F)N1CCN(C(=O)C2CC2)CC1 [Olaparib] (partner 8 µM)
Method in brief: as §1

| Cell Line | relative viability ([1]; first compound 0.04 µM) | relative viability ([1]; first compound 0.1265 µM) | relative viability ([1]; first compound 0.4 µM) | relative viability ([1]; first compound 1.265 µM) | relative viability ([1]; first compound 4 µM) | relative viability ([2]; first compound 0.04 µM) | relative viability ([2]; first compound 0.1265 µM) | relative viability ([2]; first compound 0.4 µM) | relative viability ([2]; first compound 1.265 µM) | relative viability ([2]; first compound 4 µM) | relative viability ([3]; first compound 0.04 µM) | relative viability ([3]; first compound 0.1265 µM) | relative viability ([3]; first compound 0.4 µM) | relative viability ([3]; first compound 1.265 µM) | relative viability ([3]; first compound 4 µM) | relative viability ([4]; first compound 0.08 µM) | relative viability ([4]; first compound 2.53 µM) | relative viability ([4]; first compound 8 µM) | relative viability ([4]; first compound 0.8 µM) |
| --- | --- | --- | --- | --- | --- | --- | --- | --- | --- | --- | --- | --- | --- | --- | --- | --- | --- | --- | --- |
| NCI-H2085 | 0.762 | 0.726 | 0.667 | 0.706 | 0.619 | 0.628 | 0.77 | 0.778 | 0.359 | 0.636 | 0.825 | 0.863 | 0.732 | 0.733 | 0.668 | 0.903 | 0.807 | 0.746 | – |
| NCI-H460 | 0.342 | 0.429 | 0.521 | 0.579 | 0.571 | 0.509 | 0.522 | 0.558 | 0.535 | 0.495 | 0.0682 | 0.063 | 0.0594 | 0.0603 | 0.0691 | 0.303 | 0.451 | 0.412 | 0.505 |
| Calu-6 | 0.602 | 0.592 | 0.547 | 0.533 | 0.45 | – | – | – | – | – | – | – | – | – | – | 0.565 | 0.62 | 0.497 | 0.6 |
| RERF-LC-KJ | 0.879 | 0.906 | 0.894 | 0.934 | 0.86 | 0.417 | 0.435 | 0.446 | 0.434 | 0.425 | 0.496 | 0.486 | 0.472 | 0.47 | 0.424 | 0.849 | 0.945 | 0.954 | 0.873 |
| LCLC-103H | 0.8 | 0.748 | 0.769 | 0.827 | 0.628 | 0.284 | 0.351 | 0.329 | 0.268 | 0.308 | 0.417 | 0.426 | 0.493 | 0.51 | 0.407 | 0.79 | 0.717 | 0.723 | 0.839 |
| HCC-15 | 0.744 | 0.731 | 0.726 | 0.693 | 0.743 | 0.447 | 0.465 | 0.437 | – | 0.424 | 0.242 | 0.242 | 0.209 | 0.212 | 0.233 | 0.694 | 0.766 | 0.588 | 0.789 |
| H3255 | 0.533 | 0.607 | 0.606 | 0.558 | 0.48 | 0.396 | 0.332 | 0.337 | 0.348 | 0.322 | 0.556 | 0.554 | 0.552 | 0.555 | 0.501 | 0.562 | 0.601 | 0.608 | 0.567 |
| NCI-H1792 | 0.419 | 0.523 | 0.564 | 0.383 | 0.319 | 0.286 | – | 0.15 | 0.278 | 0.357 | 0.817 | 0.731 | 0.875 | 0.72 | 0.584 | 0.504 | 0.471 | 0.353 | 0.385 |
| NCI-H1563 | – | – | – | – | – | 0.623 | 0.74 | 0.632 | 0.687 | 0.641 | 0.772 | 0.915 | 0.867 | 0.413 | 0.706 | – | – | – | – |
| NCI-H596 | 0.63 | 0.698 | 0.723 | 0.749 | 0.763 | 0.781 | 0.668 | 0.804 | – | 0.713 | 0.528 | 0.534 | 0.504 | 0.509 | 0.41 | 0.733 | 0.687 | 0.72 | 0.709 |
| NCI-H2087 | 0.733 | 0.598 | 0.605 | 0.625 | 0.576 | 0.497 | 0.571 | 0.554 | – | 0.557 | 0.654 | 0.651 | 0.65 | 0.571 | 0.577 | 0.522 | 0.528 | 0.633 | 0.545 |
| NCI-H661 | 0.734 | 0.722 | 0.895 | 0.706 | 0.597 | 0.222 | 0.274 | 0.247 | 0.224 | 0.244 | 0.938 | 0.964 | 0.943 | 0.811 | 0.639 | 0.705 | 0.75 | 0.733 | 0.757 |
| NCI-H522 | 0.591 | 0.684 | 0.657 | 0.658 | 0.629 | 0.69 | 0.549 | 0.668 | 0.591 | 0.402 | 0.842 | 1.09 | 0.956 | 1.05 | 1.01 | 0.63 | 0.726 | 0.803 | 0.712 |
| EMC-BAC-2 | – | 0.516 | 0.477 | 0.505 | 0.425 | 0.41 | 0.553 | 0.469 | 0.404 | 0.409 | 0.401 | 0.422 | 0.452 | 0.471 | 0.402 | 0.346 | 0.476 | 0.477 | 0.521 |
| NCI-H1355 | 0.723 | 0.75 | 0.877 | 0.709 | 0.696 | 0.393 | 0.469 | 0.498 | 0.436 | 0.388 | 1.1 | 1.06 | 1.01 | 1.06 | 1.05 | 0.704 | 0.792 | 0.792 | 0.727 |
| NCI-H1299 | 0.91 | 0.987 | 0.933 | 0.878 | 0.767 | – | – | – | – | – | – | – | – | – | – | 1.03 | 0.946 | 0.91 | 0.97 |
| NCI-H1648 | 1.01 | 1.02 | 1.93 | 1.71 | 1.29 | – | – | – | – | – | 1.12 | 0.933 | 1.03 | 1.12 | 1.28 | 1.02 | – | 1.3 | 0.817 |
| EBC-1 | 0.847 | 0.713 | 0.678 | 0.683 | 0.583 | – | – | – | – | – | – | – | – | – | – | 0.778 | 0.804 | 0.741 | 0.722 |
| IA-LM | 0.824 | 0.996 | 0.914 | 1.11 | 0.914 | – | – | – | – | – | – | – | – | – | – | 1.02 | 0.87 | 0.846 | 0.916 |
| ABC-1 | 0.511 | 0.752 | 0.942 | 0.953 | 0.693 | 0.254 | 0.262 | 0.227 | – | 0.243 | – | – | – | – | – | 0.826 | 1.15 | 0.84 | 0.795 |
| NCI-H1703 | 0.374 | 0.476 | 0.348 | – | 0.463 | – | – | – | – | – | – | – | – | – | – | 0.375 | 0.443 | 0.431 | 0.72 |
